# Results reported in ChEMBL document CHEMBL1201862, “PubChem BioAssay data set” (2004).
#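 Dose response: 5 concentrations. Exposure: 48 h. Format: 96-well plates. Endpoint: linear interpolation; highest concentration if not reached. The concentration for 50% growth inhibition is given as GI50.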 Active and inactive are the calls of the source. Cut-off read from the data, not from the text of the source: active = GI50 up to about 1.1 µM and inactive = higher.
# Legend:
# Assay in all cases: inhibition of tumour cell growth, NCI panel, 48 h
# [1] = system: RPMI-8226
# [2] = system: CCRF-CEM
# [3] = system: SN12C
# [4] = system: SF-295
# [5] = system: MOLT-4
# [6] = system: SK-MEL-2
# [7] = system: 786-0
# [8] = system: SF-539
# [9] = system: K562
# [10] = system: ACHN
# [11] = system: DMS-114
# [12] = system: UO-31
# [13] = system: HL-60
# [14] = system: OVCAR-3
# [15] = system: HCT-116
# [16] = system: T47D
# [17] = system: PC-3
# [18] = system: NCI-H226
# [19] = system: MDA-N
# [20] = system: MCF7
SMILES,GI50 [1],GI50 [2],GI50 [3],GI50 [4],GI50 [5],GI50 [6],GI50 [7],GI50 [8],GI50 [9],GI50 [10],GI50 [11],GI50 [12],GI50 [13],GI50 [14],GI50 [15],GI50 [16],GI50 [17],GI50 [18],GI50 [19],GI50 [20]
c1ccc2c(c1)c1ccccc1c1n[se]nc21,> 100 µM (inactive),> 100 µM (inactive),> 100 µM (inactive),43.9 µM (inactive),> 100 µM (inactive),> 100 µM (inactive),39 µM (inactive),34.6 µM (inactive),> 100 µM (inactive),31.8 µM (inactive),> 100 µM (inactive),33.1 µM (inactive),> 100 µM (inactive),,,,,,,
O=S(=O)(/C=C/C(=C/c1ccccc1)S(=O)(=O)c1ccccc1)c1ccccc1,0.61 µM (active),0.778 µM (active),1.7 µM (inactive),1.66 µM (inactive),1.52 µM (inactive),1.89 µM (inactive),1.77 µM (inactive),1.77 µM (inactive),1 µM (active),1.76 µM (inactive),1.57 µM (inactive),1.82 µM (inactive),0.543 µM (active),1.73 µM (inactive),1.72 µM (inactive),,,,,
C[N+](C)(C)CC1CCCC/C1=N\OC(=O)c1ccccc1 (stereo not given),> 100 µM (inactive),> 100 µM (inactive),> 100 µM (inactive),> 100 µM (inactive),> 100 µM (inactive),,> 100 µM (inactive),> 100 µM (inactive),> 100 µM (inactive),> 100 µM (inactive),> 100 µM (inactive),> 100 µM (inactive),,> 100 µM (inactive),> 100 µM (inactive),,,,,
CN(C)CC1CN(C(=O)Nc2ccccc2)C(=N)O1 (stereo not given),> 100 µM (inactive),> 100 µM (inactive),> 100 µM (inactive),> 100 µM (inactive),> 100 µM (inactive),> 100 µM (inactive),> 100 µM (inactive),> 100 µM (inactive),> 100 µM (inactive),> 100 µM (inactive),,> 100 µM (inactive),> 100 µM (inactive),> 100 µM (inactive),> 100 µM (inactive),> 100 µM (inactive),> 100 µM (inactive),> 100 µM (inactive),83.2 µM (inactive),> 100 µM (inactive)
Cn1c(SCc2ccc([N+](=O)[O-])cc2)nnc1C12CC3CC(CC(C3)C1)C2,> 10 µM (inactive),> 10 µM (inactive),> 10 µM (inactive),> 10 µM (inactive),> 10 µM (inactive),> 10 µM (inactive),> 10 µM (inactive),> 10 µM (inactive),> 10 µM (inactive),> 10 µM (inactive),,> 10 µM (inactive),> 10 µM (inactive),> 10 µM (inactive),> 10 µM (inactive),> 10 µM (inactive),> 10 µM (inactive),> 10 µM (inactive),> 10 µM (inactive),> 10 µM (inactive)
O=C1CCCc2ccc([N+](=O)[O-])c(O)c21,,> 100 µM (inactive),65 µM (inactive),> 100 µM (inactive),> 100 µM (inactive),39 µM (inactive),89.9 µM (inactive),> 100 µM (inactive),> 100 µM (inactive),48.9 µM (inactive),66.1 µM (inactive),34.8 µM (inactive),92.5 µM (inactive),> 100 µM (inactive),> 100 µM (inactive),,,40.8 µM (inactive),,
NS(=O)(=O)c1cc2c(cc1Cl)NC(/C(=N/NC(=O)c1ccncc1)C1C(=O)NC(=O)NC1=O)=NS2(=O)=O,> 100 µM (inactive),> 100 µM (inactive),,> 100 µM (inactive),> 100 µM (inactive),> 100 µM (inactive),> 100 µM (inactive),> 100 µM (inactive),> 100 µM (inactive),> 100 µM (inactive),> 100 µM (inactive),95.3 µM (inactive),> 100 µM (inactive),> 100 µM (inactive),55.8 µM (inactive),,,,,
Cc1cc(NS(=O)(=O)c2ccc(Nc3c4ccccc4nc4c(C(=O)Nc5ccc(S(N)(=O)=O)cc5)cccc34)cc2)no1,> 100 µM (inactive),26.5 µM (inactive),36.2 µM (inactive),> 100 µM (inactive),27 µM (inactive),24.1 µM (inactive),> 100 µM (inactive),21.3 µM (inactive),44.3 µM (inactive),> 100 µM (inactive),28.5 µM (inactive),80.9 µM (inactive),,16 µM (inactive),31.2 µM (inactive),,,,,
CC(O)(C(=O)N(O)c1ccc(Cl)cc1)c1ccc(Cl)cc1 (stereo not given),11.2 µM (inactive),6.08 µM (inactive),37.4 µM (inactive),27.3 µM (inactive),12.5 µM (inactive),22.2 µM (inactive),28.8 µM (inactive),32.5 µM (inactive),17.3 µM (inactive),18.7 µM (inactive),,26.1 µM (inactive),14.7 µM (inactive),25.2 µM (inactive),28.4 µM (inactive),31.6 µM (inactive),22.1 µM (inactive),40.6 µM (inactive),41.1 µM (inactive),35.4 µM (inactive)
Sc1nnc(/C=C/c2ccc(Cl)c(Cl)c2)[nH]1,,> 100 µM (inactive),> 100 µM (inactive),> 100 µM (inactive),59.4 µM (inactive),> 100 µM (inactive),> 100 µM (inactive),> 100 µM (inactive),> 100 µM (inactive),> 100 µM (inactive),0.0298 µM (active),71.3 µM (inactive),> 100 µM (inactive),77.1 µM (inactive),> 100 µM (inactive),,,> 100 µM (inactive),,
O=C(NC(Cc1c[nH]c2ccccc12)C(=O)O)/C(=C/c1ccccc1)NC(=O)c1ccccc1 (stereo not given),32.4 µM (inactive),> 66.4 µM (inactive),> 100 µM (inactive),36.4 µM (inactive),51.1 µM (inactive),57.5 µM (inactive),> 100 µM (inactive),49.4 µM (inactive),59.7 µM (inactive),> 94.8 µM (inactive),,53.2 µM (inactive),77.6 µM (inactive),38.4 µM (inactive),> 80.4 µM (inactive),36.2 µM (inactive),50.5 µM (inactive),> 100 µM (inactive),82.4 µM (inactive),50 µM (inactive)
Cc1cc(S(=O)(=O)Nc2nnc3c4ccccc4cnn23)c(S)cc1Cl,> 100 µM (inactive),> 100 µM (inactive),> 100 µM (inactive),47.5 µM (inactive),> 100 µM (inactive),31.6 µM (inactive),> 74.3 µM (inactive),> 56.9 µM (inactive),> 100 µM (inactive),> 100 µM (inactive),,> 91.2 µM (inactive),> 100 µM (inactive),> 86.3 µM (inactive),58.2 µM (inactive),74.1 µM (inactive),> 100 µM (inactive),24.1 µM (inactive),> 100 µM (inactive),> 67.3 µM (inactive)
Cc1c(C)c(S(=O)(=O)N(CCCCCCN)OCCCN)c(C)c2c1OC(C)(C)CC2,4.39 µM (inactive),2.31 µM (inactive),13 µM (inactive),7.5 µM (inactive),2.18 µM (inactive),2.42 µM (inactive),3.22 µM (inactive),> 24.1 µM (inactive),4.53 µM (inactive),8.99 µM (inactive),,11.8 µM (inactive),1.22 µM (inactive),2.44 µM (inactive),1.97 µM (inactive),12.1 µM (inactive),3.7 µM (inactive),5.37 µM (inactive),2.81 µM (inactive),9.59 µM (inactive)
COc1ccc(OC)c(NC(=O)C(=O)Nn2c(S)nc3ccccc3c2=O)c1,> 100 µM (inactive),> 100 µM (inactive),> 100 µM (inactive),> 100 µM (inactive),> 100 µM (inactive),> 100 µM (inactive),> 100 µM (inactive),> 100 µM (inactive),> 100 µM (inactive),> 100 µM (inactive),,> 100 µM (inactive),> 100 µM (inactive),> 100 µM (inactive),> 100 µM (inactive),> 100 µM (inactive),> 100 µM (inactive),> 100 µM (inactive),> 100 µM (inactive),> 100 µM (inactive)
C[C@H](CCC(=O)NCCS(=O)(=O)O)[C@H]1CC[C@H]2[C@@H]3CC[C@@H]4C[C@H](O)CC[C@]4(C)[C@H]3CC[C@]12C,> 100 µM (inactive),> 100 µM (inactive),> 100 µM (inactive),> 100 µM (inactive),91 µM (inactive),> 100 µM (inactive),> 100 µM (inactive),> 100 µM (inactive),> 100 µM (inactive),> 100 µM (inactive),,> 100 µM (inactive),> 100 µM (inactive),> 100 µM (inactive),> 100 µM (inactive),> 100 µM (inactive),> 100 µM (inactive),> 100 µM (inactive),> 100 µM (inactive),> 100 µM (inactive)
CC1=NN(C(=O)c2ccncc2)C(=O)C1/N=N/c1ccc2ccccc2c1 (stereo not given),> 50.6 µM (inactive),64.6 µM (inactive),> 100 µM (inactive),91 µM (inactive),5.32 µM (inactive),14.7 µM (inactive),> 100 µM (inactive),> 96.8 µM (inactive),5.46 µM (inactive),> 100 µM (inactive),,> 100 µM (inactive),1.71 µM (inactive),28.1 µM (inactive),32.7 µM (inactive),> 100 µM (inactive),> 100 µM (inactive),> 100 µM (inactive),2.94 µM (inactive),5.32 µM (inactive)
